Results taken from patent publication US20030060397A1, “Method of treating and preventing acute neural lesions with substances that modulate the expression or function of a protein involved in the cell cycle and pharmaceutical preparations containing such substances” (priority 2000, published 2003).

Tests used:
[1] = system: hippocampus cells; experiment: Kainate-dependent neuronal death in primary hippocampus cell cultures (propidium iodine); format: cell-based, Wistar rats; conditions: kainate 20 μM
Method: Neuronal death was analyzed by phase contrast microscopy and the use of two death markers: propidium iodine and Hoechst dye (Bisbenzimide).
Counting was performed on hippocampus cultures exposed to 20 μM of kainate. At least two dishes per condition were evaluated.

[2] = system: cyclin D1; experiment: Western blot of cyclin D1 expression after exposure to kainate, normalized by class III β-tubulin; format: cell-based, Wistar rats; conditions: kainate 75 μM, 100% before kainate
Method: After exposure of the hippocampus cells to kainate, the cells were washed in PBS then lysed in a Laemli buffer. The samples were subjected to sonication and heated at 100° C. for 5 minutes. Electrophoresis with a 12% SDS-polyacrylamide gel was then performed. The proteins were then transferred onto a nitrocellulose membrane and incubated with an anti-cyclin D1 monoclonal antibody or with an anti-CDK5 polyclonal antibody (Santa Cruz, Calif., USA) or with a class III anti-β-tubulin monoclonal antibody (Sigma, St. Louis, USA), a specific neuronal marker. Labeling was performed using the anti-rabbit antibody or anti-mouse antibody coupled to horseradish peroxidase using the ECLTM kit (Amersham Corp., England). The control experiments were performed by omitting the first antibodies.

[3] = system: excitotoxic neuronal death induced by kainate; conditions: inhibitors of caspases; cited from earlier work
[4] = 5 hours, in the absence of inhibitor

Compound: C=C(C)[C@H]1CN[C@H](C(=O)O)[C@H]1CC(=O)O [kainate]
- augmentation of neuronal death in relation to the cultures without kainate [1, 4]: 150%
- neuronal death [1, 4]: ~65%
- time of mortality peak ([1]; propidium iodine): 5 h
- normalized level of expression of cyclin D1 (percentage of the control) [2]: more than 150%

Compound: DEVD-CHO
- prevention of excitotoxic neuronal death induced by kainate [3]: can not be prevented

Compound: YVAD-CHO
- prevention of excitotoxic neuronal death induced by kainate [3]: can not be prevented
